Earlier results as cited in patent US20250170146A1, “NIRAPARIB AND ABIRATERONE ACETATE PLUS PREDNISONE TO IMPROVE CLINICAL OUTCOMES IN PATIENTS WITH METASTATIC CASTRATION-RESISTANT PROSTATE CANCER AND HRR ALTERATIONS” (JANSSEN PHARMACEUTICA NV, priority 2022, published 2025).
Like-named read-outs stand apart in the source and are kept apart here.

Key:
CYP2C8 = biological target: T1, CYP2C8 (Homo sapiens, UniProt P10632); conditions: pioglitazone with a single dose of 1,000 mg AA; healthy subjects
T1 construct: host or cells: healthy subjects (in vivo; the subjects' own enzyme)
T1 sequence (P10632 1-490): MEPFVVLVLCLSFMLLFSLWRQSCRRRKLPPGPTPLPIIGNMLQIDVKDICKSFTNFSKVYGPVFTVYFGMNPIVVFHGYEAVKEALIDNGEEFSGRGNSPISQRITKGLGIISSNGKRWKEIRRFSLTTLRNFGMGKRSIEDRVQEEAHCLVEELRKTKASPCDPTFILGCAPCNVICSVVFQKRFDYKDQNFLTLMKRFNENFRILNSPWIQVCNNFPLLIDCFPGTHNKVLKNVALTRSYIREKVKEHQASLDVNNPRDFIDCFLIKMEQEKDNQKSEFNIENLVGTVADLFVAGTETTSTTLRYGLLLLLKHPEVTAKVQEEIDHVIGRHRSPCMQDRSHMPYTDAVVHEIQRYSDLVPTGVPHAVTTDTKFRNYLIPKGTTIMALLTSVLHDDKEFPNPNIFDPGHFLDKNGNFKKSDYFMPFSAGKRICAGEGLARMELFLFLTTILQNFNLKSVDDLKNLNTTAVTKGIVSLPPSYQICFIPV

post-docetaxel mCRPC = conditions: Affirm
[1] = system: first line (pre-docetaxel) mCRPC; conditions: Prevail
mCRPC = conditions: TAX-327

CC(=O)O[C@H]1CC[C@@]2(C)C(=CC[C@@H]3[C@@H]2CC[C@]2(C)C(c4cccnc4)=CC[C@@H]32)C1 [AA, Abiraterone acetate]
increase in AUC of pioglitazone (CYP2C8): 46%

CNC(=O)c1ccc(N2C(=S)N(c3ccc(C#N)c(C(F)(F)F)c3)C(=O)C2(C)C)cc1F [Enzalutamide]
OS (post-docetaxel mCRPC): 18.4 months
OS benefit vs placebo (post-docetaxel mCRPC): 4.8 months
PSA50 response (post-docetaxel mCRPC): 54%
QoL response rate (post-docetaxel mCRPC): 43%
TTPSA progression (post-docetaxel mCRPC): 8.3 months
rPFS (post-docetaxel mCRPC): 8.3 months
12-month rPFS milestone [1]: 65%
investigator assessed rPFS [1]: 20 months
median OS [1]: 35.3 months
median rPFS [1]: not reached
objective response rate (ORR) [1]: 59%
rPFS benefit by BICR Hazard Ratio [1]: 0.32
rPFS risk reduction by BICR [1]: 68%

CC(=O)O[C@@]12CO[C@@H]1C[C@H](O)[C@@]1(C)C(=O)[C@H](O)C3=C(C)[C@@H](OC(=O)[C@H](O)[C@@H](NC(=O)OC(C)(C)C)c4ccccc4)C[C@@](O)([C@@H](OC(=O)c4ccccc4)[C@H]21)C3(C)C [docetaxel]
OS benefit vs mitoxantrone (mCRPC): 2.4 months
PSA50 response (mCRPC): 45%
overall survival (OS) (mCRPC): 18.9 months
quality of life (QoL) response (mCRPC): 22%
tumor response (mCRPC): 12%

O=C1c2c(O)ccc(O)c2C(=O)c2c(NCCNCCO)ccc(NCCNCCO)c21 [mitoxantrone]
PSA50 response (mCRPC): 32%
overall survival (OS) (mCRPC): 16.5 months
quality of life (QoL) response (mCRPC): 13%
tumor response (mCRPC): 7%

Cc1ccc(S(=O)(=O)O)cc1.NC(=O)c1cccc2cn(-c3ccc([C@@H]4CCCNC4)cc3)nc12 [niraparib, 2-[4-[(3S)-piperidin-3-yl]phenyl]-2H-indazole-7-carboxamide]
median OS (L2+ mCRPC HRR-positive; L2+ mCRPC BRCA patients): 13.01 months
median rPFS (L2+ mCRPC HRR-positive; L2+ mCRPC BRCA patients): 8.08 months
median time to PSA progression (L2+ mCRPC HRR-positive; L2+ mCRPC BRCA patients): 5.13 months
median time to symptomatic skeletal event (L2+ mCRPC HRR-positive; L2+ mCRPC BRCA patients): 13.80 months
overall response rate (ORR) (L2+ mCRPC HRR-positive; L2+ mCRPC BRCA patients): 34.2%
ORR (L2+ mCRPC HRR-positive; L2+ mCRPC non-BRCA patients): 10.6%
median OS (L2+ mCRPC HRR-positive; non-BRCA patients): 9.63 months
median rPFS (L2+ mCRPC HRR-positive; non-BRCA patients): 3.71 months
median time to PSA progression (L2+ mCRPC HRR-positive; non-BRCA patients): 3.65 months
median time to symptomatic skeletal event (L2+ mCRPC HRR-positive; non-BRCA patients): 10.35 months
